These are literature values, as cited in article PMC6257630, “Photoactivatable Cell-Selective Dinuclear trans-Diazidoplatinum(IV) Anticancer Prodrugs” (Inorganic Chemistry, 2018).

For the data set, the system named is cisplatin-resistant A2780cis cells. On the set-up: method as in PMID 20677309. As to conditions: irradiation with UVA (365 nm); cited from earlier work.

pIC50: −log10 of the molar value.

“trans,trans,trans-[Pt(N3)2(OH)2(py)2] [FM-190]”: the pIC50 (as a rule, the IC50 on a negative log10 scale, so that one unit is a factor of ten) is 4.84.
